Experimental data reported in PubChem BioAssay AID256 (DTP/NCI, 2004).
“And” between values parts separate entries of the source, which are not always exact repeats. Identical values can stand only once. Toxic doses and inconclusive results are not listed.

Test system: CD2F1 mice, L1210 leukemia ip, survival T/C
Assay: NCI In Vivo Anticancer Drug Screen. Data for tumor model L1210 Leukemia (intraperitoneal) in CD2F1 (CDF1) mice
Details: higher = longer survival
Procedure, shortened: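 Tumor-bearing mice (transplanted tumor) were split into treated and vehicle control groups, and the measured endpoint of each treated group was divided by that of its vehicle controls.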

[1] = endpoint: mean survival time, dose: 6.25 mg/kg/injection, schedule: Q01DX009 (ip), vehicle: saline with Tween-80
[2] = endpoint: mean survival time, dose: 50.0 mg/kg/injection, schedule: Q01DX009 (ip), vehicle: saline with Tween-80
[3] = endpoint: mean survival time, dose: 100.0 mg/kg/injection, schedule: Q01DX009 (ip), vehicle: saline with Tween-80
[4] = endpoint: mean survival time, dose: 100.0 mg/kg/injection, schedule: Q04DX003 (ip), vehicle: saline with Tween-80
[5] = endpoint: mean survival time, dose: 200.0 mg/kg/injection, schedule: Q01DX009 (ip), vehicle: saline with Tween-80
[6] = endpoint: mean survival time, dose: 200.0 mg/kg/injection, schedule: Q04DX003 (ip), vehicle: saline with Tween-80
[7] = endpoint: mean survival time, dose: 400.0 mg/kg/injection, schedule: Q04DX003 (ip), vehicle: saline with Tween-80
[8] = endpoint: mean survival time, dose: 100.0 mg/kg/injection, schedule: Q04DX003 (ip), vehicle: saline
[9] = endpoint: mean survival time, dose: 200.0 mg/kg/injection, schedule: Q04DX003 (ip), vehicle: saline
[10] = endpoint: mean survival time, dose: 400.0 mg/kg/injection, schedule: Q04DX003 (ip), vehicle: saline

## CC(C)(C)N[P+](C)(NC(C)(C)C)c1ccccc1
endpoint: mean survival time, dose: 3.13 mg/kg/injection, schedule: Q04DX003 (ip), vehicle: saline
  T/C: 98 % of control
endpoint: mean survival time, dose: 6.25 mg/kg/injection, schedule: Q04DX003 (ip), vehicle: saline
  T/C: 103 % of control
endpoint: mean survival time, dose: 12.5 mg/kg/injection, schedule: Q04DX003 (ip), vehicle: saline
  T/C: 86 % of control and 95 % of control

## Cc1cnccc1Br
endpoint: mean survival time, dose: 25.0 mg/kg/injection, schedule: Q01DX009 (ip), vehicle: water
  T/C: 96 % of control
endpoint: mean survival time, dose: 50.0 mg/kg/injection, schedule: Q01DX009 (ip), vehicle: water
  T/C: 96 % of control
endpoint: mean survival time, dose: 100.0 mg/kg/injection, schedule: Q01DX009 (ip), vehicle: water
  T/C: 86 % of control
endpoint: mean survival time, dose: 200.0 mg/kg/injection, schedule: Q01DX009 (ip), vehicle: water
  T/C: 90 % of control

## Cc1cc(C)c(N2C(=O)C=CC2=O)c(C)c1
[1]
  T/C: 94 % of control

## CCCCCCCCCCCCCC#CC(=O)O
endpoint: mean survival time, dose: 3.12 mg/kg/injection, schedule: Q01DX009 (ip), vehicle: saline with Tween-80
  T/C: 101 % of control and 109 % of control
[1]
  T/C: 96 % of control and 98 % of control
endpoint: mean survival time, dose: 12.5 mg/kg/injection, schedule: Q01DX009 (ip), vehicle: saline with Tween-80
  T/C: 91 % of control and 98 % of control
endpoint: mean survival time, dose: 25.0 mg/kg/injection, schedule: Q01DX009 (ip), vehicle: saline with Tween-80
  T/C: 91 % of control and 98 % of control
[2]
  T/C: 91 % of control and 95 % of control
[3]
  T/C: 88 % of control

## O=[N+]([O-])c1ccc2c(N=Nc3c(O)ccc4ccccc34)c(O)cc(S(=O)(=O)O)c2c1
endpoint: mean survival time, dose: 50.0 mg/kg/injection, schedule: Q01DX009 (ip), vehicle: saline
  T/C: 119 % of control
endpoint: mean survival time, dose: 100.0 mg/kg/injection, schedule: Q01DX009 (ip), vehicle: saline
  T/C: 100 % of control
endpoint: mean survival time, dose: 200.0 mg/kg/injection, schedule: Q01DX009 (ip), vehicle: saline
  T/C: 109 % of control

## NC(CC(=O)NC(=O)OCc1ccccc1)C(=O)O (stereo not given)
[3]
  T/C: 100 % of control
[4]
  T/C: 101 % of control
[5]
  T/C: 102 % of control
[6]
  T/C: 101 % of control
endpoint: mean survival time, dose: 400.0 mg/kg/injection, schedule: Q01DX009 (ip), vehicle: saline with Tween-80
  T/C: 102 % of control
[7]
  T/C: 98 % of control

## CC(C)CCCC(C)C1CCC2C3CC=C4CC(OCCC(C)C)CCC4(C)C3CCC12C (stereo not given)
[4]
  T/C: 97 % of control
[6]
  T/C: 95 % of control
[7]
  T/C: 88 % of control

## COc1cc2c(ccc3c4cc(OC)c(OC)cc4c[n+](C)c23)cc1O
endpoint: mean survival time, dose: 80.0 mg/kg/injection, schedule: Q01DX009 (ip), vehicle: saline
  T/C: 150 % of control
endpoint: mean survival time, dose: 160.0 mg/kg/injection, schedule: Q01DX009 (ip), vehicle: saline with Tween-80
  T/C: 150 % of control
endpoint: mean survival time, dose: 160.0 mg/kg/injection, schedule: Q01DX009 (ip), vehicle: saline
  T/C: 174 % of control
endpoint: mean survival time, dose: 320.0 mg/kg/injection, schedule: Q01DX009 (ip), vehicle: saline with Tween-80
  T/C: 87 % of control
endpoint: mean survival time, dose: 320.0 mg/kg/injection, schedule: Q01DX009 (ip), vehicle: saline
  T/C: 86 % of control

## C=C1C(=O)OC2/C=C(\C)CC(O)/C=C(/CO)CC(OC(=O)/C(C)=C/C)C12 (stereo not given)
endpoint: median survival time, dose: 15.0 mg/kg/injection, schedule: Q01DX009 (ip), vehicle: saline
  T/C: 103 % of control
endpoint: median survival time, dose: 30.0 mg/kg/injection, schedule: Q01DX009 (ip), vehicle: saline
  T/C: 108 % of control
endpoint: median survival time, dose: 60.0 mg/kg/injection, schedule: Q01DX009 (ip), vehicle: saline
  T/C: 105 % of control
endpoint: median survival time, dose: 120.0 mg/kg/injection, schedule: Q01DX009 (ip), vehicle: saline
  T/C: 95 % of control

## O=C(O)CCOc1ccc(F)cc1F
endpoint: mean survival time, dose: 100.0 mg/kg/injection, schedule: Q04DX002 (ip), vehicle: saline with Tween-80
  T/C: 86 % of control
endpoint: mean survival time, dose: 200.0 mg/kg/injection, schedule: Q04DX002 (ip), vehicle: saline with Tween-80
  T/C: 90 % of control
endpoint: mean survival time, dose: 400.0 mg/kg/injection, schedule: Q04DX002 (ip), vehicle: saline with Tween-80
  T/C: 86 % of control

## O=C(/C=C/c1ccccc1)N1CC2CCC(CC2)C1
[2]
  T/C: 94 % of control
[3]
  T/C: 94 % of control
[5]
  T/C: 91 % of control

## CC1CCOC1=O (stereo not given)
endpoint: mean survival time, dose: 50.0 mg/kg/injection, schedule: Q04DX002 (ip), vehicle: saline
  T/C: 98 % of control
endpoint: mean survival time, dose: 100.0 mg/kg/injection, schedule: Q04DX002 (ip), vehicle: saline
  T/C: 98 % of control
endpoint: mean survival time, dose: 200.0 mg/kg/injection, schedule: Q04DX002 (ip), vehicle: saline
  T/C: 102 % of control

## OC1OCC(Cc2ccc3c(c2)OCO3)C1Cc1ccc2c(c1)OCO2 (stereo not given)
[8]
  T/C: 89 % of control
[9]
  T/C: 93 % of control
[10]
  T/C: 89 % of control

## CCOC(=O)c1cc2c3n(c1=O)CCCC3C(c1ccc(Cl)c(Cl)c1)OC2=O (stereo not given)
[8]
  T/C: 98 % of control
[9]
  T/C: 101 % of control
[10]
  T/C: 104 % of control

## CCOC(=O)N1Cc2cc3ccccc3nc2C1
endpoint: mean survival time, dose: 75.0 mg/kg/injection, schedule: Q01DX009 (ip), vehicle: saline with Tween-80
  T/C: 100 % of control
endpoint: mean survival time, dose: 150.0 mg/kg/injection, schedule: Q01DX009 (ip), vehicle: saline with Tween-80
  T/C: 101 % of control

## O=C1c2[nH]c3ccccc3c2CC1N1C(=O)c2ccccc2C1=O (stereo not given)
[4]
  T/C: 87 % of control
[6]
  T/C: 93 % of control
[7]
  T/C: 91 % of control
